One substance from patent US7405200B2, “Use of oxytocin for the preparation of a pharmaceutical composition against cancer in situ and cervicitis” (priority 2001, dated 2008) can be followed below.

The subject of this assay is cancer in situ and cervicitis. The assay is described as follows: Effect of Oxytocin on Cancer in Situ and Cervicitis in Humans (Pap smear test). Format: in vivo. Particulars: one patient with cancer in situ and cervicitis; oxytocin 1 mg/ml mixed with 1 ml cellulose gel intravaginally during five consecutive days. The procedure: Patients. 20 women, all aged 60–70 years, with postmenopausal disorders, participated in a double blind cross-over randomised protocol, which means that the patients receive both oxytocin and control treatment without knowing the order of the treatments.
Experimental procedure. The patients were treated with oxytocin 1 mg/ml mixed with 1 ml cellulose gel intravaginally during five consecutive days to relieve the postmenopausal disorders. However, it was discovered that one of the patients suffered from cancer in situ and cervicitis before the oxytocin treatment. This was established by the fact that the patient underwent a Pap smear test before the oxytocin treatment. In this test, cells desquamated from the genital epithelium are obtained by smears, fixed and stained, and examined under the microscope for evidence of pathologic changes. After the oxytocin treatment, the patient also underwent a Pap smear test.

As to oxytocin, the “results of the Pap smear tests before and after oxytocin administration” value was “the cancer in situ and cervicitis was removed”.
